Literature values as cited in patent publication US6147189A, “Polypeptides that include conformation-constraining groups which flank a protein-protein interaction site” (Virginia Commonwealth University, priority 1997, dated 2000).
Where a SMILES comes first, the peptide text is derived from it.

Test system: receptors of sweet tasting papillae
Conditions: comparison value

Sweetness compared with sugar: 160 times sweeter than sugar
SMILES: COC(=O)[C@H](Cc1ccccc1)NC(=O)[C@@H](N)CC(=O)O [aspartame] (H-Asp-Phe-OMe)
